The values below are quoted from earlier work in patent publication US10001483B2, “Methods for the treatment of Kaposi's sarcoma or KSHV-induced lymphoma using immunomodulatory compounds, and uses of biomarkers” (Celgene Corporation, priority 2015, dated 2018).

For this series the following is noted: patients, cited from earlier work.

Structures are written as SMILES. Read-outs that look alike come from different tables or passages of the source.

With `Nc1cccc2c1CN(C1CCC(=O)NC1=O)C2=O` (stereo not shown) [lenalidomide, 3-(4-amino-1-oxo 1,3-dihydro-2H-isoindol-2-yl) piperidine-2,6-dione], where the note is “approved dose 25 mg”, the Cmax was 451 ng/mL and the “Plasma Serum Concentration” value is 2 µM.

As to `O=C1CCC(N2C(=O)c3ccccc3C2=O)C(=O)N1` (stereo not shown) [thalidomide, 2-(2,6-dioxopiperidin-3-yl)-1H-isoindole-1,3(2H)-dione], under “approved dose 200 mg”, the Cmax is 1760 ng/mL and the “Plasma Serum Concentration” value is 7 µM.

One may read the Cmax as the maximum level reached in the sampled fluid or tissue.
